Reference: patent US10123985B2, “Therapeutic strategies for treating mitochondrial disorders” (Whitehead Institute for Biomedical Research, priority 2015, dated 2018)
Entries after “also recorded” stand apart in the source; their conditions may differ.

Legend:
[1] = system: Jurkat cells; assay: Proliferation assay (Cell Titer Glo, 5 days) of wild type and knock-out Jurkat cells; assay type: cell-based, human
Method: sgRNAs (oligonucleotide sequences are indicated above) were cloned into lentiCRISPR-v1 linearized with BsmBI by Gibson Assembly (NEB). sgRNA expressing vector along with lentiviral packaging vectors Delta-VPR and CMV VSVG were transfected into HEK-293T cells using the XTremeGene 9 transfection reagent (Roche). Similarly, for overexpression cell lines, cDNA vectors along with retroviral packaging vectors gag-pol and CMV VSV-G were transfected into HEK-293T cells. Media was changed 24 hours after transfection.

[2] = system: Raji lymphoma and KMS-26 multiple myeloma cells; assay type: cell-based, human; settings: 5-day treatment
Method: […]. Media was changed 24 hours after transfection.

[3] = system: Jurkat cells; assay: [U-13C]-L-glutamine isotope tracing of aspartate in Jurkat cells; assay type: cell-based, human; settings: phenformin (10 μM)
Method: (§1) LC/MS analyses were conducted on a QExactive benchtop orbitrap mass spectrometer equipped with an Ion Max source and a HESI II probe, which was coupled to a Dionex UltiMate 3000 UPLC system (Thermo Fisher Scientific, San Jose, Calif.). External mass calibration was performed using the standard calibration mixture every 7 days.
Polar metabolites were extracted using 1 ml of ice-cold 80% methanol with 10 ng/ml valine-d8 as an internal standard. After a 10 min vortex and centrifugation for 10 min at 4° C. at 10,000 g, samples were dried under nitrogen gas. Dried samples were stored at −80° C. and then resuspended in 100 μL water; 1 μl of each sample was injected onto a ZIC-pHILIC 2.1×150 mm (5 μm particle size) column (EMD Millipore). Buffer A was 20 mM ammonium carbonate, 0.1% ammonium hydroxide; buffer B was acetonitrile. […] Relative quantitation of polar metabolites was performed with XCalibur QuanBrowser 2.2 (Thermo Fisher Scientific) using a 5 ppm mass tolerance and referencing an in-house library of chemical standards.

[4] = system: Jurkat cells; assay: Seahorse oxygen consumption of Jurkat cells; assay type: cell-based, human; settings: phenformin (10 μM), wild type and GOT1 null
Method: Oxygen consumption of intact cells was measured using an XF24 Extracellular Flux Analyzer (Seahorse Bioscience). For Jurkat cells, seahorse plates were coated with cell TAK (BD, 0.02 mg/ml in […] NaHO3) for 20 minutes to increase adherence of suspension cells. 200,000 cells were then attached to the plate by centrifugation at 2,200 rpm without brakes for 5 min. RPMI 8226 (US biological #9011) assay media was used as previously described (Birsoy et al., 2014). For basal oxygen consumption measurements the cell number was used to normalize.

[5] = system: Jurkat cells; assay: Metabolite profiling (LC/MS) of Jurkat cells; assay type: cell-based, human
Method: as §1
Polar metabolites were extracted using 1 ml of ice-cold 80% methanol with 10 ng/ml valine-d8 as an internal standard. After a 10 min vortex and centrifugation for 10 min at 4° C. at 10,000 g, samples were dried under nitrogen gas. Dried samples were stored at −80° C. and then resuspended in 100 μL water; 1 μl of each sample was injected onto a ZIC-pHILIC 2.1×150 mm (5 μm particle size) column (EMD Millipore). Buffer A was 20 mM ammonium carbonate, 0.1% ammonium hydroxide; buffer B was acetonitrile. The chromatographic gradient was run at a flow rate of 0.150 ml/min as follows: 0-20 min.: linear gradient from 80% to 20% B; 20-20.5 min.: linear gradient from 20% to 80% B; 20.5-28 min.: hold at 80% B. The mass spectrometer was operated in fullscan, polarity switching mode with the spray voltage set to 3.0 kV, the heated capillary held at 275° C., and the HESI probe held at 350° C. The sheath gas flow was set to 40 units, the auxiliary gas flow was set to 15 units, and the sweep gas flow was set to 1 unit. The MS data acquisition was performed in a range of 70-1000 m/z, with the resolution set at 70,000, the AGC target at 106, and the maximum injection time at 80 msec. Relative quantitation of polar metabolites was performed with XCalibur QuanBrowser 2.2 (Thermo Fisher Scientific) using a 5 ppm mass tolerance and referencing an in-house library of chemical standards.

[6] = system: 143B CytB cells; assay: Cell cycle distribution by propidium iodide flow cytometry; assay type: cell-based; settings: 143B CytB cells, 100 μM adenine, 78 hours
Method: 143B CytB cells were incubated in untreated media or media containing AKB or 100 μM adenine for 78 hours before being washed with PBS, trypsinized, pelleted, and resuspended in 500 μL PBS. Cells were fixed by adding 4.5 mL 70% ethanol and incubated at 4° C. overnight. The following day cells were pelleted and resuspended in 1 mL PBS+0.1% (v/v) Triton X-100. RNase A and then propidium iodide (PI) were added to 0.2 mg/mL and 20 μg/mL, respectively. Samples were incubated at 37° C. for 15 minutes and filtered into a flow cytometry tube. DNA content was measured by flow cytometry (BD FACS Canto II) and analyzed (FACS Diva Software).

[7] = system: 143B CytB cells; assay: Proliferation assay of respiration-incompetent 143B CytB cybrid cells; assay type: cell-based; settings: media supplemented with the substance; no pyruvate unless tested, uridine present
Method: FL5.12 cells were cultured in the same medium and supplemented with 5 μg/mL recombinant mouse IL-3 (R&D Systems). […] All cells incubated at 37° C. with 5% CO2.
Adherent cell lines growing in log phase were trypsinized, counted, and plated onto 6 well dishes (Corning) in 2 mL complete DMEM and incubated overnight. […] The following day, one plate of cells was counted to determine the initial cell count at the time of treatment. Cells were washed 2 times with 2 mL phosphate buffered saline (PBS) and 4 mL media premixed with the indicated treatments was added. FL5.12 cells, a suspension cell line, were washed 2 times in PBS and added directly to media containing the indicated treatments and 5 μg/mL recombinant mouse IL-3. Proliferation rate assay media was DMEM without pyruvate containing 10% dialyzed FBS, penicillin-streptomycin, and 0.1 mg/mL uridine, unless otherwise noted. […] Cells were counted using Cellometer Auto T4 Plus Cell Counter (Nexcelom Bioscience). Proliferation rate was determined using the following formula: Proliferation Rate (Doublings per day)=(log2(Final cell count (day 5)/Initial cell count (day 1))/4 (days)

[8] = GOT1-null Jurkat cells, 24-hour phenformin

[H]/N=C(/N)N/C(=N/[H])NCCc1ccccc1 [phenformin, reference compound]
Proliferation of Jurkat cells ([1]; 0.5 μM phenformin, pyruvate-free RPMI): only mildly slowed proliferation | Viability and proliferation of GOT1-null versus wild type Jurkat cells ([1]; higher concentrations of phenformin, 5 days): GOT1-null cells die; also recorded: GOT1-null cells arrested and died, while the wild type counterparts did not | Proliferation of GOT1-null versus wild type Jurkat cells ([1]; low doses of phenformin, 5 days): inhibited the proliferation of GOT1-null cells to a much greater extent than that of wild type cells | Sensitivity of GOT1-null versus wild type Raji and KMS-26 cells to phenformin [2]: GOT1 loss sensitizes various human cell types to phenformin treatment; also recorded: far more sensitive to phenformin than their wild type counterparts | Aspartate synthesis from [U-13C]-L-glutamine ([3]; GOT1-null Jurkat cells): almost no generation of aspartate from labeled glutamine | Aspartate synthesis from [U-13C]-L-glutamine ([3]; wild type Jurkat cells): aspartate is mainly synthesized by reductive metabolism of glutamine in a GOT1-dependent manner; also recorded: aspartate synthesis dropped, and what remained came primarily from reductive glutamine metabolism with almost no contribution from the oxidative pathway | Oxygen consumption (respiration) of Jurkat cells [4]: suppressed respiration as measured by oxygen consumption; also recorded: inhibits oxygen consumption of wild type and GOT1 null Jurkat cells | Other amino acids [5, 8]: without much effect on other amino acids | Reduction of cellular aspartate [5, 8]: ~30 fold | Aspartate level ([5]; MDH1-null Jurkat cells, phenformin (10 μM) 24 hours): dropped to the same level as it did in wild type cells | Fall of aspartate levels ([5]; wild type Jurkat cells, 24-hour phenformin): ~3 fold

Nc1ncnc2nc[nH]c12 [adenine, reference compound]
Cell cycle distribution (DNA content) [6]: alleviated the slight accumulation of cells at the S/G2 transition | Proliferation rate of 143B CytB cells [7]: restored proliferation for one doubling
